Columns and labels:
[1] = tested on: Meibomian gland secretions of rabbits; conditions: cited from earlier work
[2] = tested on: acute, orchiectomized (ORX) rabbit model; assay: Tear fatty acid composition (palmitate:stearate ratio) after Compound 2 or TP, Example 3; type: in vivo; conditions: ORX rabbits
From the text: The goal of this study was to compare the effect of Compound 2 to testosterone propionate (TP) on tear composition in an acute, orchiectomized (ORX) rabbit model.
Fifteen New Zealand white rabbits weighing approximately 3 lbs were allowed to acclimate for 4 weeks before the start of the study. Animals were weighed on day 0 of the study, randomized according to body weight and allotted to the following dose groups:
Pre-dose tear and blood samples were collected. Animals from groups 2-5 were to premedicated with glycopyrrolate (0.02 mg/kg) and then anesthesia was induced with a combination of ketamine (15 mg/kg): medetomidine (0.25 mg/kg).
Anesthesia was maintained with isoflurane (1 liter/hr). Orchiectomy was performed using a scrotal incision. Animals were revived from anesthesia using atipamezole (1 mg/kg) SQ. Analgesia was provided with buprenorphine (0.05 mg/kg) Immediately after the animals had recovered from anesthesia, they received their first dose with the appropriate test articles as indicated above.
Drug dosing was done once daily for 14 days. Blood was collected at 60 minutes post administration of the last dose of drug and plasma separated for HPLC analysis of parent drug concentrations.
Tears were collected using Schirmer tear strips (Alcon, Tex.) on day 0 before surgery, 24 hours after the last administration of drug (day 15) and also at 42 days (6 weeks after start of study). The tears were stored at −80° C. prior to lipid analysis.
Lipids were hydrolyzed, extracted from the Schirmer strips, derivatized, and subjected to gas chromatography with flame ionization detector (GCFID) to evaluate the lipid composition.
The samples were evaluated for the presence of 28 saturated and unsaturated fatty acids that included methyl caprate (C10:0), methyl laurate (C12:0), methyl 11-dodecenoate (C12:1), methyl myristate (C14:0), methyl myristoleate (C14:1), methyl palmitate (C16:0), methyl palmitoleate (C16:1), methyl stearate (C18:0), methyl oleate (C18:1), methyl vaccenate (C18:1), methyl linoleate (C18:2), methyl gamma linoleate (C18:3), methyl linoleate (C18:3), methyl arachidate (C20:0), methyl 11-eicosenoate (C20:1), methyl 11,14 eicosadinoate (C20:2), methyl 8,11,14 eicosatrienoate (C20:3), methyl eicosapentaenoate (C20:5), methyl behenate (C22:0), methyl erucate (C22:1), methyl 13,16 docosaenoate (C22:2), methyl docosatetraenoate (C22:4), methyl docosapentaenoate (C22:5), methyl docosahexaenoate (C22:6), methyl lignocerate (C24:0), and methyl nervonate (C24:1).
The area under the curve for each individual peak was determined using GC ChemStation software. […] These samples were then washed with a saturated solution of NaCl+0.1% formic acid (FA). […] These samples were all in the predose tear group. Two more samples from the predose group and one sample from Vehicle Intact treated group had small but clear and well to separated peaks that were included in the analysis.
To normalize for the tear content, the lipid composition was expressed as a ratio of the lipid that was most affected by castration (palmitate) to one which remained relatively constant (stearate). Blood was also collected on day 15 (24 hours after last drug administration) of the study, plasma separated and analyzed for Compound 2.
The last dose of drug or vehicle was administered on day 15 of the study Animals were left untreated for 4 weeks (washout period) before tear samples were collected again on Schirmer tear strips and analyzed as indicated above.

| Compound | Effect on fatty acid profile in total and neutral lipid fractions of Meibomian gland secretions [1] | Increase of tear palmitate:stearate ratio relative to intact animals ([2]; 2.5 mg/kg, 14 days) | Tear palmitate:stearate ratio after 4 week washout ([2]; SQ 2.5 mg/kg for two weeks, then untreated 4 weeks) |
| --- | --- | --- | --- |
| C[C@]12CC[C@H]3[C@@H](CCC4=CC(=O)CC[C@@H]43)[C@@H]1CC[C@@H]2O [19-nortestosterone] | modulated the fatty acid profile | – | – |
| CCC(=O)O[C@H]1CC[C@H]2[C@@H]3CCC4=CC(=O)CC[C@]4(C)[C@H]3CC[C@]12C [TP, testosterone propionate, reference compound] | – | two times that of intact animals | 1.67±0.17 |
